According to patent US9902709B2, “Polysubstituted pyridine compound, preparation method, use and pharmaceutical composition” (PEKING UNIVERSITY FOUNDER GROUP CO., LTD., priority 2014, dated 2018):

Molecular target: VEGFR2 (Homo sapiens (Human), UniProt P35968)
Assay: Inhibitory activity of VEGFR2 kinase (HTRF KinEASE-TK kit)
Assay type: biochemical
Method: HTRF®KinEASE™-TK kit (Cat.62TKOPEC, Cisbio);
VEGFR2 (Cat: k2643, Sigma);
2.1 Preparation of VEGFR2 Kinase Reagent
1× kinase buffer: 1 mL 1× kinase buffer contained 200 μL 5× kinase buffer (Invitrogen), 5 μL, 1M MgCl2, 1 μL 1M DTT, 1 μL 1M MnCl2, and 793 μL ddH2O;
5×TK substrate-biotin and ATP working fluid: as the concentrations of TK substrate-biotin and ATP, please refer to Table 1. TK substrate-biotin and ATP were diluted with 1× kinase buffer to 5 folds of the reaction concentrations;
5× kinase working fluid: as the concentration of VEGFR2 kinase, please refer to Table 1. 5× kinase working fluid was prepared with 1× Kinase buffer;
4× Sa-XL665 working fluid: as the concentration of Sa-XL665 (Cisbio) in the reaction, please refer to Table 1. The 4× Sa-XL665 working fluid was prepared with assay buffer (Cisbio);
4×TK Ab-cryptate working fluid: TK Ab-Cryptate (Cisbio) was 100-fold diluted with assay buffer (Cisbio), as working fluid;
Experimental Procedure of HTRF KinEASE TK Kit
After all the reagents were prepared as described above, the reagents except for enzymes were equilibrated to room temperature, then adding samples were performed.
TK substrate-biotin, ATP, VEGFR2 kinase and a compound at a certain concentration were reacted in 1× kinase buffer at room temperature for 20 minutes. […] To all the reaction wells, 5 μl 4× Sa-XL665 working fluid and 5 μl 4×TK Ab-cryptate working fluid were added. After reacting at room temperature for 1 hours, fluorescence signal (excited at 320 nm, emitted at 665 nm, 615 nm) was detected by ENVISION detector (Perkinelmer). Based on the full-active well and the background signal well, the inhibition rate for each well was calculated, and the average value was used for duplicate wells. The half maximal inhibitory concentration (IC50) for each test compound was fitted by professional software Graphpad PRISM 5.0.
2.3 Data Analysis Emission light ratio (ER)=665 nm emission signal/615 nm emission signal Inhibition rate=(ERpositive−ERsample)/(ERpositive−ERnegative)*100%
HTRF KinEASE TK kit was used to determine the IC50 value of a compound for kinase VEGFR2. The final concentration of the compound started from 100 μM, and 4-fold gradient dilution was carried out to provide 10 concentrations. Duplicate wells were used for each concentration. The final concentration of DMSO was controlled to 1% in the reaction system.

Chain of VEGFR2 (P35968 20-1356): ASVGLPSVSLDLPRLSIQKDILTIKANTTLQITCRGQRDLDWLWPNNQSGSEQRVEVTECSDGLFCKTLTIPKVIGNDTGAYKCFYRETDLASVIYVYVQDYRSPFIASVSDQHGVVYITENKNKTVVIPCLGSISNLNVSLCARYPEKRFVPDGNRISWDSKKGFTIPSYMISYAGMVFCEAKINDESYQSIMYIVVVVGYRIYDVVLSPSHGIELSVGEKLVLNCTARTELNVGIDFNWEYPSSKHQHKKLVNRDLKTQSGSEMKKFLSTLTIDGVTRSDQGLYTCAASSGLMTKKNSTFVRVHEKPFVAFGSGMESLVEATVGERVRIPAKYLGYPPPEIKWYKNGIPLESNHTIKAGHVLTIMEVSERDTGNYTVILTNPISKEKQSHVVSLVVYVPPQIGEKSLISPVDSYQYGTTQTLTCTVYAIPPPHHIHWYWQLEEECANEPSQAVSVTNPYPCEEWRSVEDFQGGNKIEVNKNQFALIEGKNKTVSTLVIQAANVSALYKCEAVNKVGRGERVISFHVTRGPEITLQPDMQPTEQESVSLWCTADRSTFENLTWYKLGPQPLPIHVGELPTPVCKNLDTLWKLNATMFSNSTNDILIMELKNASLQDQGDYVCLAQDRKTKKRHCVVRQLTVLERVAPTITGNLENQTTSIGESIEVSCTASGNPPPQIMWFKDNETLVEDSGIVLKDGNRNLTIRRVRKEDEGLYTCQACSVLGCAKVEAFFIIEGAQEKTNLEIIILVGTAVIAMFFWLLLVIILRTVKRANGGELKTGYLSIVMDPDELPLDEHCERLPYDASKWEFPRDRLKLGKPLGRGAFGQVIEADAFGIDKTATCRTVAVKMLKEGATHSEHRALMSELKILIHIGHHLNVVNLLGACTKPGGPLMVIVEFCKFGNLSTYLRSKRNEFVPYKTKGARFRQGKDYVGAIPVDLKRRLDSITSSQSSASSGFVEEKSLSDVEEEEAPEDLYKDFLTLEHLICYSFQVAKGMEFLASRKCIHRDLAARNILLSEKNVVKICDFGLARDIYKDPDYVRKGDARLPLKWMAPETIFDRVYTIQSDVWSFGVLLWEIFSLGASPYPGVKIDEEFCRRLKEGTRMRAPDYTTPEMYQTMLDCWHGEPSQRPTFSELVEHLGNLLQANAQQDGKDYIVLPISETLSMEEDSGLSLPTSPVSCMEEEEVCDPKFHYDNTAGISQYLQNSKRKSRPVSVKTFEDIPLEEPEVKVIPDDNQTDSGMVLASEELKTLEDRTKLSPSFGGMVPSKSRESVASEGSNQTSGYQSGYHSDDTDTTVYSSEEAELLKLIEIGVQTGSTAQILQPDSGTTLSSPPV

## Cn1cc(-c2nccc(Oc3ccc(NC(=O)Nc4ccc(Cl)c(C(F)(F)F)c4)cc3)c2Cl)cn1 [Example 2, 1-(4-chloro-3-(trifluoromethyl)phenyl)-3-(4-(3-chloro-2-(1-methyl-pyrazol-4-yl)-pyridin-4-yl-oxy)phenyl)urea]
ATP 5 μM, 20 minutes, room temperature
  IC50: 55.5 nM
VEGFR2 kinase
  inhibitory activity as fold of that of Comparative compound 2: 3.4 fold
  inhibitory activity as fold of that of Sorafenib: 1.61 fold
VEGFR2 kinase, ratio of IC50
  IC50 value as fold of that of Comparative compound 2: 0.34 fold
  IC50 value as fold of that of Sorafenib (free base): 0.62 fold
